The numbers were not newly measured in patent US20060205810A1, “Platinum therapeutic combinations” (Schering Corporation, priority 2004, published 2006), which cites them from elsewhere.

For data set [1], the system named is human ovarian carcinoma cells.
Data set [2] relates to intrinsic and acquired resistance to cisplatin. Conditions: cell culture studies.
For data set [3], the system named is small cell lung cancer (SCLC). As to conditions: small cell lung cancer patients.
For data set [4] the following is noted: incubated with fresh human whole blood in vitro.

On to `N.NC1CCCCC1.[Cl-].[Cl-].[Pt+2]` [JM118], for which the “cytotoxicity compared with cisplatin” value in data set [1] is given as “greater cytotoxicity than cisplatin”. Moreover, the “circumvention of resistance to cisplatin” value in data set [2] is “can partially circumvent intrinsic and acquired resistance to cisplatin”.
For the compound `CC(=O)[O][Pt]([NH2])([Cl])([Cl])([NH]C1CCCCC1)[O]C(C)=O` [satraplatin], the “circumvention of resistance to cisplatin” value in data set [2] was “can partially circumvent intrinsic and acquired resistance to cisplatin”. In data set [3], the complete responses result was “no complete responses” and the “median overall survival time” value is on record as 210 days. In addition, the tumor response rate in data set [3] (10 of 26) is reported as 38%. In addition, in data set [4], the “added platinum associated with red blood cells” value was 62% and the “half-life for the disappearance of the drug” value is 6.3 min.
